The subject of assay [1] is d(5'-GCTGCGTTAACGCAGC-3')2 (DNA, duplex) GCTGCGTTAACGCAGC
In words: X-ray crystallography, low resolution. As to conditions: antiparallel stacked dimer in minor groove; not deposited.

The subject of assay [2] is AATT hairpin, 5'-biotin (SPR) (DNA, hairpin) CGAAATTGCCTCTGCAATTCG
In words: biosensor SPR, steady-state one-site fit. The note with it: Na+ 100 mM (Table 1 note 10 mM), 50 mM Tris-HCl, 1 mM EDTA.

The test system of assay [3] is TTAA hairpin (ESI-MS, CD) (DNA, hairpin) CGTTAAGCTTTCTTAACG
Description: circular dichroism titration. As to conditions: Na+ 100 mM; 50 mM Tris-HCl, 1 mM EDTA, pH 7.4, 25 °C; DNA 5 μM.

The test system is the same in assay [4]. Description: competition ESI-MS. The note with it: NH4+ 100 mM (ammonium acetate); 10% methanol, pH 6.8; AATT and TTAA 10 μM each, compound 20 μM.
Assay [5] relates to AATT hairpin (ESI-MS, CD) (DNA, hairpin) CGAAATTGCCTCTGCAATTCG
Description: competition ESI-MS. As to conditions: NH4+ 100 mM (ammonium acetate); 10% methanol, pH 6.8; AATT and TTAA 10 μM each, compound 20 μM.

For assay [6], the system named is d(5'-GCTGCGTTAACGCAGC-3')2 (DNA, duplex) GCTGCGTTAACGCAGC
Description: X-ray crystallography, 1.5 Å. As to conditions: Ca2+ 600 mM (CaCl2, well); HEPES, PEG 400; antiparallel stacked dimer in minor groove.

For assay [7], the system named is AATT hairpin, 5'-biotin (SPR) (DNA, hairpin) CGAAATTGCCTCTGCAATTCG
Description: biosensor SPR, one-site kinetic fit. As to conditions: Na+ 100 mM (Table 1 note 10 mM); 50 mM Tris-HCl, 1 mM EDTA, 0.05% P20, pH 7.4.

Assay [8] relates to TTAA hairpin, 5'-biotin (SPR) (DNA, hairpin) CGTTAAGCTTTCTTAACG
Description: biosensor SPR, steady-state fit. As to conditions: Na+ 100 mM (Table 1 note 10 mM); 50 mM Tris-HCl, 1 mM EDTA, 0.05% P20, pH 7.4.

For assay [9], the system named is TATA hairpin, 5'-biotin (SPR) (DNA, hairpin) CCTATAGTTTTCTATAGG
In words: biosensor SPR. As to conditions: Na+ 100 mM (Table 1 note 10 mM); printed as 'Very weak binder'; 50 mM Tris-HCl, 1 mM EDTA, 0.05% P20, pH 7.4; up to 1000 nM.

For assay [10] the test system is unchanged. In words: biosensor SPR, steady-state fit. As to conditions: Na+ 100 mM (Table 1 note 10 mM); 50 mM Tris-HCl, 1 mM EDTA, 0.05% P20, pH 7.4.
The subject of assay [11] is TTAA hairpin, 5'-biotin (SPR) (DNA, hairpin) CGTTAAGCTTTCTTAACG
Description: biosensor SPR, steady-state two-site fit. As to conditions: Na+ 100 mM; 50 mM Tris-HCl, 1 mM EDTA, pH 7.4; site 1 of 2; KA2 5.5 × 10^6; Table 1 KA 6.9 × 10^6.

For assay [12], the system named is TATA hairpin, 5'-biotin (SPR) (DNA, hairpin) CCTATAGTTTTCTATAGG
In words: biosensor SPR, steady-state two-site fit. As to conditions: Na+ 100 mM; 50 mM Tris-HCl, 1 mM EDTA, pH 7.4; site 1 of 2; KA2 2.6 × 10^6; Table 1 KA 4.2 × 10^6.

The test system of assay [13] is AATT hairpin, 5'-biotin (SPR) (DNA, hairpin) CGAAATTGCCTCTGCAATTCG
In words: biosensor SPR, one-site fit. The note with it: Na+ 100 mM (Table 1 note 10 mM); 50 mM Tris-HCl, 1 mM EDTA, 0.05% P20, pH 7.4.

SMILES strings stand for the structures.

On to `N=C(N)c1ccc2[nH]c(-c3ccc(-c4ccc(C(=N)N)o4)o3)nc2c1`, for which the binding result in assay [1], in [3] and in assay [4] was “yes” throughout. In addition, the KA in [2] (0.05% P20, pH 7.4) is 2.1e+06 M⁻¹.

On to `N=C(N)c1ccc2[nH]c(-c3ccc(-c4ccc(C(=N)N)s4)o3)nc2c1`, for which the KA in assay [2] (0.05% P20, pH 7.4) was 6.2e+06 M⁻¹. For the same compound, the binding entry was “weak” in [5], “yes” in [3], “yes” in assay [6] and “yes” in [4].

Regarding `N=C(N)c1ccc2[nH]c(-c3ccc(-c4ccc(C(=N)N)s4)s3)nc2c1`, the binding entry in assay [5] is “yes”; in assay [3] it was “yes”; in assay [4], “weak”; in assay [9], “weak”. Besides, the KA in assay [7] was found to be 2.4e+08 M⁻¹; in assay [8], 1.6e+06 M⁻¹.

The compound `N=C(N)c1ccc2cc(-c3ccc(-c4ccc(C(=N)N)o4)o3)[nH]c2c1` had a KA in assay [2] (0.05% P20, pH 7.4) of 7.3e+06 M⁻¹. Further, the binding entry in assay [3] was “yes”.

Regarding `N=C(N)c1ccc2cc(-c3ccc(-c4ccc(C(=N)N)o4)s3)[nH]c2c1`, the KA in assay [2] (0.05% P20, pH 7.4) amounted to 6.7e+07 M⁻¹; in assay [8], 2.8e+06 M⁻¹; in assay [10] it was 5.2e+06 M⁻¹.

As for `N=C(N)c1ccc2cc(-c3ccc(-c4ccc(C(=N)N)s4)o3)[nH]c2c1`, the KA in assay [2] (0.05% P20, pH 7.4) was 6.5e+06 M⁻¹. The binding result in assay [3] is reported as “yes”.

As for `N=C(N)c1ccc2cc(-c3ccc(-c4ccc(C(=N)N)s4)s3)[nH]c2c1`, the KA1 is 8.8e+06 M⁻¹ in assay [11] and 6.9e+06 M⁻¹ in [12]. Moreover, the KA in [13] is 1.5e+08 M⁻¹.

Consider `N=C(N)c1ccc2nc(-c3ccc(-c4ccc(C(=N)N)o4)s3)[nH]c2c1`, for which the KA in assay [2] (0.05% P20, pH 7.4 buffer, text b17 prints 3.0 × 10^7) amounted to 3.5e+07 M⁻¹; in assay [8], 1e+06 M⁻¹; in assay [10], 700000 M⁻¹. Further, the figures for the binding result in assay [5], in assay [3] and in assay [4] were “yes”, “yes” and “weak”, respectively.
